Where two headings read alike, the source gives them in different places.
How the values were obtained:
Assay type in all cases: cell-based
[1] = tested on: Pseudomonas aeruginosa (ATCC 15442); assay: Microtiter test of biocidal efficacy and synergy (MIC/MBC, Kull K value), Example 1
Procedure: An 8X stock solution of DBDCB was prepared by dissolving about 3.2 grams (g) of 20% active DBDCB in about 4 ml of methanol and diluting the volume up to about 100 ml with deionized water. The DBDCB used in the examples was obtained from Calgon Corporation, Pittsburgh, PA, as Merguard® 1200. A Triclosan 4X stock solution was prepared by dissolving about 0.16g of about 99% active Triclosan in about 5 ml of methanol and diluting the volume up to about 100 ml with deionized water. The Triclosan was obtained from Ciba Geigy as Irgasan® DP 300.
Two microtiter plates were prepared for use in the example, each microtiter plate having 8 rows, A-H, and 12 columns, 1-12. The amount of each biocide in each well of the plates is depicted below.
The amount of biocide in each well of the second microtiter plate of each set was a follows: TABLE 2
(§1) The minimum inhibitory concentration (MIC) for each biocide combination against Ps. aeruginosa was determined. The MIC is the least amount of biocide needed to prevent growth in the well, with growth being defined as turbidity in the medium or a "pellet" of cells which came out of the medium and settled at the bottom of the well.
Additional plates were then subcultured from the MIC plates at 24 hours following biocide addition. Subculturing was done to determine the minimum biocidal concentration (MBC). […]

[2] = tested on: Pseudomonas aeruginosa (ATCC 15442); assay: Microtiter test of biocidal efficacy and synergy (Kull K value), Example II, bacterium
Procedure: as §1
(§2) Additional plates were then subcultured from the MIC plates at 24 hours following biocide addition. Subculturing was done to determine the minimum biocidal concentration (MBC). The MBC is the lowest concentration of biocide that results in no growth after subculturing and subsequent incubation.
(§3) All of the microtiter plates including the MIC plates and the MBC plates were incubated for 24 hours at 37°C. Following the 24 hour incubation period, the presence or absence of growth in each well of the plates was determined. Growth in the microtiter plates was determined with a Dynatech MR-5000 microplate reader, available from Dynatech Laboratories, Chantilly, VA, USA, the use of which will be familiar to one having ordinary skill in the art. The presence or absence of growth in each well, along with the concentration of biocide in each well, was then used to determine the synergistic properties of the biocide combinations. The synergistic properties were evaluated by determining the Kull value, or K value. The method for calculating K value is well known to those skilled in the art. In this example, the K value was determined by the following formula: K=([DBDCB] In Combination)/([DBDCB] Alone)+([Triclosan] In Combination)/([Triclosan] Alone) [formula] where "[DBDCB]
A K value of less than 1 indicates synergy between the two biocides, a K value of greater than 1 indicates antagonism between the two biocides, and a K value equal to 1 indicates an additive effect of the two biocides.
Example I was repeated with the following differences. The DBDCB was tested at the following concentrations: 200, 100, 50, 25, 12.5, 6.25 and 3.125, with concentration given in ppm active. […]

[3] = tested on: Candida albicans (ATCC 10231); assay: Microtiter test of biocidal efficacy and synergy (Kull K value), Example II, yeast; conditions: ATCC10231, 120 h
Procedure: as §1, §2
as §3, with “The method for calculating K value is well known to those skilled in the art. In this example, the K value was determined by the following formula: K=([DBDCB] In Combination)/([DBDCB] Alone)+([Triclosan] In Combination)/([Triclosan] Alone) [formula] where "[DBDCB]” left out

| SMILES | MIC ([1]; ATCC15442, concentration of DBDCB which, used alone, resulted in inhibition of microbial growth, ppm active, 24 hours at 37°C, read-out: [DBDCB] Alone) [µg/mL] | MIC ([2]; DBDCB alone, inhibition of microbial growth, ppm active, 35°C for 24 hours) [ppm] | MIC ([2]; Pseudomonas aeruginosa, ATCC15442, 24 h, DBDCB alone, inhibition of microbial growth, ppm active, 35°C for 24 hours, read-out: [DBDCB] Alone) [µg/mL] | MIC ([3]; DBDCB alone, inhibition of microbial growth, ppm active, 30°C for 5 days, read-out: [DBDCB] Alone) [µg/mL] | MIC ([1]; ATCC15442, 24 h, read-out: [Triclosan] Alone) [µg/mL] | MIC ([2]; Pseudomonas aeruginosa, ATCC15442, 24 h, read-out: [Triclosan] Alone) [µg/mL] | MIC ([3]; read-out: [Triclosan] Alone) [µg/mL] |
| --- | --- | --- | --- | --- | --- | --- | --- |
| N#CCCC(Br)(C#N)CBr (stereo not shown) [DBDCB, 1,2-dibromo-2,4-dicyanobutane] | 200 | 200 | 100 | 100 |  |  |  |
| Oc1cc(Cl)ccc1Oc1ccc(Cl)cc1Cl [Triclosan, 2,4,4'-trichloro-2'-hydroxydiphenyl ether] |  |  |  |  | 100 | > 100 | 12.5 |

Reference: patent EP0919125A1, “Synergistic antimicrobial composition” (Calgon Corporation, priority 1997, dated 1999)
